Assay results taken from ChEMBL document CHEMBL1143340, “Osteogenic activity of constituents from Butea monosperma” (Bioorg Med Chem Lett, 2009).
Activity calls are given as the source filed them. The rule behind the calls is not given here.

Test system: Osteoblast
Assay: Induction of mineralization in Sprague-Dawley rat calvaria derived primary osteoblast after 7 days by Alizarin Red S staining
Assay type: functional, cell-based

Row | SMILES | Activity
1 | COc1ccc2c(=O)c(-c3ccc(O)cc3)coc2c1 | Active
2 | COc1ccc(-c2coc3cc(O)ccc3c2=O)cc1OC | Active
3 | COc1ccc(-c2coc3cc(O)ccc3c2=O)cc1 | Active
4 | COc1cc(O)c2c(=O)c(-c3ccc(O)cc3O)coc2c1 | Active
